From patent US20120094998A1, “Oligomer-Protein Tyrosine Kinase Inhibitor Conjugates” (Nektar Therapeutics, priority 2009, published 2012)
≈ marks a conversion by molar mass, not a printed value. Read-outs that look alike come from different tables or passages of the source.

Experiments:
Thermodynamic solubility = assay type: physicochemical; conditions: aqueous buffer, thermodynamic from solid; phosphate buffered saline, pH 7.4; ambient temperature overnight
Method: Test compound (2.5 mg of solid; n=1) is weighed in a clear glass vial and buffer (0.5 mL) is added (phosphate buffered saline, pH 7.4). The solution is agitated at ambient temperature overnight using a vial roller system. […] Duplicate aliquots (50 μL) are sampled from the filtrate and diluted with one volume of 0.1 N hydrochloric acid and methanol (1:1 v/v) before analysis by HPLC-UV. […] The concentration of test compound in the filtrate is quantified relative to the concentration standard.
Analysis is performed using a gradient HPLC-UV system with a total cycle time of six minutes.

[1] = Caco-2 permeability (bi-directional; pH 7.4/pH 7.4); assay type: in vitro ADME; conditions: human, Caco-2, pH 7.4; read-out: Permeability (cm^2/s × 10^6)
Method: Caco-2 cells are used as an in vitro model of the human intestinal epithelium and permit assessment of the intestinal permeability of potential drugs. Test compound is added to either the apical or basolateral side of a confluent monolayer of Caco-2 cells and permeability is measured by monitoring the appearance of the test compound on the opposite side of the membrane using LC-MS/MS. Apparent permeability (Papp) coefficients, efflux ratio for the test compound and recovery values were determined.
To measure the permeability of test compound in the apical to basolateral (A-B) and basolateral to apical (B-A) direction across Caco-2 cells.
Caco-2 cells obtained from the ATCC are used between passage numbers 40-60. Cells are seeded on to Millipore Multiscreen Caco-2 plates at 1×10^5 cells/cm^2. They are cultured for 20 days in DMEM and media is changed every two or three days. On day 20 the permeability study is performed.
On day 20, the monolayers are prepared by rinsing both basolateral and apical surfaces twice with HBSS at 37° C. Cells are then incubated with HBSS in both apical and basolateral compartments for 40 min to stabilize physiological parameters. HBSS is then removed from the apical compartment and replaced with test compound dosing solutions. […] The fluorescent integrity marker lucifer yellow is also included in the dosing solution. Analytical standards are made from dosing solutions. The apical compartment inserts are then placed into ‘companion’ plates containing fresh HBSS. For basolateral to apical (B-A) permeability determination the experiment is initiated by replacing buffer in the inserts then placing them in companion plates containing dosing solutions. At 120 minutes the companion plate is removed and apical and basolateral samples diluted for analysis by LC-MS/MS. Test compound permeability was assessed in duplicate. On each plate, compounds of known permeability characteristics were run as controls.
Test and control compounds were quantified by LC-MS/MS cassette analysis using a 5-point calibration with appropriate dilution of the samples. Cyprotex generic analytical conditions were used. The starting concentration (C0) and experimental recovery were calculated from both apical and basolateral compartment concentrations.
The integrity of the monolayers throughout the experiment was checked by monitoring lucifer yellow permeation using fluorimetric analysis. Lucifer yellow permeation is low if monolayers have not been damaged. […] If lucifer yellow Papp values are above QC limits in both replicate wells for a test compound, the compound was re-tested.
Data Analysis: The permeability coefficient for each compound (Papp) is calculated from the following equation: […]
wherein dQ/dt is the rate of permeation of the drug across the cells, C0 is the donor compartment concentration at time zero and A is the area of the cell monolayer. C0 is obtained from analysis of donor and receiver compartments at the end of the incubation period. It is assumed that all of the test compound measured after 120 minutes incubation was initially present in the donor compartment at 0 minutes. An efflux ratio (ER) is derived as follows:
Talinolol (a known P-gp substrate) is also included as a control compound to assess whether functional P-gp is present in the Caco-2 cell monolayer.

ABL [2] = target: T1, ABL (Homo sapiens, UniProt P00519); experiment: Off-chip mobility-shift kinase assay (Caliper LABCHIP), ABL; conditions: for ABL AVG % Activity at 1.0E−09: concentration 1.0E−09; for ABL AVG % Activity at 1.0E−09 / ABL AVG % Activity at 1.0E−10 / ABL AVG % Activity at 1.0E−11 / ABL AVG % Activity at 3.0E−09 / ABL AVG % Activity at 3.0E−10 / ABL AVG % Activity at 3.0E−11: dasatinib-corresponding compounds; for ABL AVG % Activity at 1.0E−10: concentration 1.0E−10; for ABL AVG % Activity at 1.0E−11: concentration 1.0E−11; for ABL AVG % Activity at 3.0E−09: concentration 3.0E−09; for ABL AVG % Activity at 3.0E−10: concentration 3.0E−10; for ABL AVG % Activity at 3.0E−11: concentration 3.0E−11
T1 sequence (P00519 whole entry): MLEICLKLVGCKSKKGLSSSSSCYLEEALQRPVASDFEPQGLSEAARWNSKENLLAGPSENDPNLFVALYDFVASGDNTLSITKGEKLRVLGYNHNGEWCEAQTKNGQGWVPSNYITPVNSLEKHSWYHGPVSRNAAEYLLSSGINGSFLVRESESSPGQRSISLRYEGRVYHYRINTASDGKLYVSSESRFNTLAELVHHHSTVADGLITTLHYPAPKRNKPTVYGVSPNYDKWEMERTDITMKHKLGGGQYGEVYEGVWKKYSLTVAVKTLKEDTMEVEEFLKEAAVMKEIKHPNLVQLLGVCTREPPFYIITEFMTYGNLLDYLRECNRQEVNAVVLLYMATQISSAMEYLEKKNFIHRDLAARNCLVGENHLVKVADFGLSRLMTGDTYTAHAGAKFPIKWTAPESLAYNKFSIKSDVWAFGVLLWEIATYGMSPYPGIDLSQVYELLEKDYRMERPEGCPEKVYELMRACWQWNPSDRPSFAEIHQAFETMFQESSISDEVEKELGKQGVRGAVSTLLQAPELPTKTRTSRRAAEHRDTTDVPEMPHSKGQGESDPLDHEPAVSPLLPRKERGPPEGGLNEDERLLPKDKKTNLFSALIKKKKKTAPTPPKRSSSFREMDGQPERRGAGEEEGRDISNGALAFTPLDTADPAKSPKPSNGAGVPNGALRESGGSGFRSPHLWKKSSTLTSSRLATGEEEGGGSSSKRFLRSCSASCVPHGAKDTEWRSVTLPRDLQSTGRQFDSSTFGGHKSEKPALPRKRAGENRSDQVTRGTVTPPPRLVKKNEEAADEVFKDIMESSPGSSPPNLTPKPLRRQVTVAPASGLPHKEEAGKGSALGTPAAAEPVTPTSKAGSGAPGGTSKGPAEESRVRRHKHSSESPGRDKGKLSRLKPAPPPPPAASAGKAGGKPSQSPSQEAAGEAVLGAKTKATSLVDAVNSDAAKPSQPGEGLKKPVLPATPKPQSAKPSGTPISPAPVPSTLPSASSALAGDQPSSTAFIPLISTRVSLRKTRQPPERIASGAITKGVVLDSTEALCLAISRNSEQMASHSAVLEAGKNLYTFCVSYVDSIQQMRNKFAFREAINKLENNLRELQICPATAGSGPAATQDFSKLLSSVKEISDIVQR

ABL [3] = target: T1, ABL

solubility (Thermodynamic solubility) [µg/mL]	Papp A→B at 120 min, 10 μM [1] [×10⁻⁶ cm/s]	IC50 (ABL [2]) [nM]	ABL AVG % Activity at 1.0E−09 (ABL [2]) [%]	ABL AVG % Activity at 1.0E−10 (ABL [2]) [%]	ABL AVG % Activity at 1.0E−11 (ABL [2]) [%]	ABL AVG % Activity at 3.0E−09 (ABL [2]) [%]	ABL AVG % Activity at 3.0E−10 (ABL [2]) [%]	ABL AVG % Activity at 3.0E−11 (ABL [2]) [%]	SMILES	further results
		0.29							COCCOCCOCCOCC(=O)OCCN1CCN(c2cc(Nc3ncc(C(=O)Nc4c(C)cccc4Cl)s3)nc(C)n2)CC1 [mPEG3-COO-Dasatinib]	ABL AVG % Activity at 1.0E−09 (ABL [3]): 2%; ABL AVG % Activity at 1.0E−10 (ABL [3]): 80%; ABL AVG % Activity at 1.0E−11 (ABL [3]): 98%; ABL AVG % Activity at 3.0E−09 (ABL [3]): −1%; ABL AVG % Activity at 3.0E−10 (ABL [3]): 44%; ABL AVG % Activity at 3.0E−11 (ABL [3]): 92%
		0.3	4	80	97	−1	45	94	COCCOCCOCCOCCOCCNC(=O)OCCN1CCN(c2cc(Nc3ncc(C(=O)Nc4c(C)cccc4Cl)s3)nc(C)n2)CC1 [mPEG5-NHCOO-Dasatinib]	

The remaining lines, values behind:

SMILES	solubility (Thermodynamic solubility) [µg/mL]	Papp A→B at 120 min, 10 μM [1] [×10⁻⁶ cm/s]	IC50 (ABL [2]) [nM]	ABL AVG % Activity at 1.0E−09 (ABL [2]) [%]	ABL AVG % Activity at 1.0E−10 (ABL [2]) [%]	ABL AVG % Activity at 1.0E−11 (ABL [2]) [%]	ABL AVG % Activity at 3.0E−09 (ABL [2]) [%]	ABL AVG % Activity at 3.0E−10 (ABL [2]) [%]	ABL AVG % Activity at 3.0E−11 (ABL [2]) [%]	further results
COCCOCCOCCN1CCN(Cc2ccc(C(=O)Nc3ccc(C)c(Nc4nccc(-c5cccnc5)n4)c3)cc2)CC1 [mPEG3-N′-Imatinib]	500 (≈ 0.799 mM)	4 ± 0.8								
COCCOCCOCCOCCOCCOCCOCCOCCOCCNC(=O)OCCN1CCN(c2cc(Nc3ncc(C(=O)Nc4c(C)cccc4Cl)s3)nc(C)n2)CC1 [mPEG9-NHCOO-Dasatinib]			0.31	4	80	97	−1	47	92	
COCCOCCOCCNCc1ccc(C(=O)Nc2ccc(C)c(Nc3nccc(-c4cccnc4)n3)c2)cc1 [mPEG3-N-Imatinib]	3300 (≈ 5.93 mM)	0.6 ± 0.07								
